Each structure is given as a SMILES string.

This series has as its system bed bugs. The series is described as follows: forced exposure toxicity test on treated filter paper circles. The series is classed as in vivo, Cimex species. The following applies: compound diluted 5% in acetone, bed bug mortality at 24 hours. How it is done:
Toxicity of compounds of structure (I) was determined by forced exposure testing under the following protocol. Five filter paper circles were laid on a flat surface and treated with the test compounds. Five replicates of five bed bugs were released onto each of the treated paper circles. Petri dish bottoms with circular openings were placed over the treated paper circles and served as the exposure arenas. The sides of the Petri dish bottoms were also painted with Fluon to prevent the bed bugs from climbing the sides. The bed bugs were thus confined to the treated paper circles for the duration of the test. Observations were made for mortality of the bed bugs at 24 hours.
In the case of `CCCC1CC(C)=CC(O)C1` (centres unmarked) [3-Methyl-5-propyl-2-cyclohexenol], the “Mortality @ 24 hours” value is reported as 60%. On to `CCCC1CC(=O)C=C(C)C1` (centres unmarked) [3-Methyl-5-propyl-2-cyclohexenone], for which the “Mortality @ 24 hours” value amounted to 100%. For `CCC1CC(=O)C=C(C)C1` (centres unmarked) [3-Methyl-5-Ethyl-2-Cyclohexenone], the “Mortality @ 24 hours” value was 78%.

As to `CC1=CC(O)CC(CC(C)C)C1` (centres unmarked) [3-Methyl-5-Isobutyl-2-cyclohexenol], the “Mortality @ 24 hours” value worked out at 10%. For `CCCCC1CC(=O)C=C(C)C1` (centres unmarked) [3-Methyl-5-Butyl-2-Cyclohexen-1-one], the “Mortality @ 24 hours” value is listed as 50%.

Source of the values: patent US9512059B2, “Killing of bed bugs” (BEDOUKIAN RESEARCH, INC., priority 2012, dated 2016).
